PubChem BioAssay (NCI)
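Results reflect a 48-hour exposure of cells in 96-well plates to compound at five concentrations. GI50: concentration for 50% inhibition of growth. TGI denotes the concentration required for complete inhibition of growth.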

Key:
Assay in all cases: NCI anticancer screen, dose series, 48 h
SR leukemia = tested on: SR leukemia
HCT-116 colon = tested on: HCT-116 colon
CAKI-1 renal = tested on: CAKI-1 renal
KM12 colon = tested on: KM12 colon
RXF 393 renal = tested on: RXF 393 renal
MDA-MB-231 breast = tested on: MDA-MB-231 breast
SK-MEL-2 melanoma = tested on: SK-MEL-2 melanoma
MOLT-4 leukemia = tested on: MOLT-4 leukemia
SK-OV-3 ovarian = tested on: SK-OV-3 ovarian
RPMI-8226 leukemia = tested on: RPMI-8226 leukemia

Row | Compound | TGI (SR leukemia) | TGI (HCT-116 colon) | TGI (CAKI-1 renal) | TGI (KM12 colon) | TGI (RXF 393 renal) | TGI (MDA-MB-231 breast) | TGI (SK-MEL-2 melanoma) | TGI (MOLT-4 leukemia) | TGI (SK-OV-3 ovarian) | TGI (RPMI-8226 leukemia) | GI50 (RXF 393 renal) | GI50 (SK-MEL-2 melanoma) | GI50 (SK-OV-3 ovarian)
1 | CCNC(=O)NNc1ncnc2c1c(-c1ccc(Cl)cc1)cn2-c1ccc(C)cc1 | 43.3 µM | 28.1 µM | 51.1 µM | 35 µM | 33.1 µM | 34.8 µM | 42.2 µM | 45.4 µM | 73.7 µM | – | – | – | –
2 | Nc1ncnc2c1sc(=S)n2-c1ccccc1 | > 100 µM | > 100 µM | > 100 µM | > 100 µM | > 100 µM | – | > 100 µM | > 100 µM | > 100 µM | > 100 µM | – | – | –
3 | CCCCCCCCCC(O)CC(=O)c1c(O)cccc1O (stereo not drawn) | – | 56.7 µM | 44 µM | 40.8 µM | 34.8 µM | 46.5 µM | 35.7 µM | 41.6 µM | 41.3 µM | 45.2 µM | – | – | –
4 | CC(=O)Oc1c2c(c(OC(C)=O)c3c1n(C(C)=O)c1ccccc1n3C(C)=O)n(C(C)=O)c1ccccc1n2C(C)=O | 7.69 µM | – | 55.1 µM | 31.5 µM | 26.8 µM | – | 24 µM | 8.7 µM | 50 µM | 10.8 µM | – | – | –
5 | C=CCOC(=O)c1c(C)n([O-])c2cc(Cl)c(Cl)cc2[n+]1=O | 13.1 µM | 39 µM | 39.6 µM | 84.7 µM | – | 55 µM | 39.4 µM | 54.4 µM | 59.8 µM | 33.9 µM | – | – | –
6 | C=CC(C)(C)C1(CC(OC)OC)C(=O)N(C)c2ccccc21 (stereo not drawn) | > 25 µM | > 25 µM | > 25 µM | > 25 µM | > 25 µM | > 25 µM | > 25 µM | – | > 25 µM | > 25 µM | – | – | –
7 | Fc1ccc2[nH]cc(-c3nc(-c4c[nH]c5ccncc45)cs3)c2c1 | – | – | – | – | 2.86 µM | – | 3.75 µM | – | 3.22 µM | – | 1.48 µM | 1.91 µM | 1.65 µM
8 | O=C(OCC1CCCN2CCCCC12)c1cccnc1 (stereo not drawn) | – | > 100 µM | > 100 µM | > 100 µM | > 100 µM | > 100 µM | > 100 µM | > 100 µM | > 100 µM | > 100 µM | – | – | –
9 | c1ccc2[nH]c3c(N=NC4=NCCN4)c4ccccc4c-3nc2c1 | > 100 µM | 13.4 µM | – | 15.8 µM | 14.3 µM | 32.4 µM | – | > 100 µM | – | – | – | – | –
10 | CC(=O)OC12CC(C(F)(F)F)(C(F)(F)F)OC1(OC(C)=O)CC(C(F)(F)F)(C(F)(F)F)O2 (stereo not drawn) | 82.1 µM | 29.7 µM | – | 11.5 µM | 77.7 µM | 53.2 µM | > 100 µM | 67.6 µM | 79.8 µM | 7.61 µM | – | – | –
11 | Cc1c(OCCCOc2ccc3c(=O)cc(-c4ccccc4)oc3c2C)ccc2c(=O)cc(-c3ccccc3)oc12 | > 100 µM | > 100 µM | > 100 µM | > 100 µM | > 100 µM | – | > 100 µM | > 100 µM | > 100 µM | > 100 µM | – | – | –
12 | CCCCOc1c(C(=O)O)cc(Br)cc1C(=O)O | – | > 100 µM | > 100 µM | > 100 µM | > 100 µM | > 100 µM | > 100 µM | > 100 µM | > 100 µM | > 100 µM | – | – | –
13 | CCn1c(-c2ccc(OC)cc2)nc2c1C(=O)c1ccccc1C2=O | > 100 µM | > 100 µM | – | > 100 µM | > 100 µM | > 100 µM | – | > 100 µM | > 100 µM | > 100 µM | – | – | –
14 | C[N+](C)=c1ccc2nc3c(ccc4ccccc43)oc-2c1 | > 100 µM | 20.3 µM | 28.9 µM | 32.2 µM | 26 µM | – | 36.6 µM | 20.4 µM | 33.5 µM | > 64.7 µM | – | – | –
15 | CO[C@H]1CC[C@]2(C)C3=CC[C@@]4(C)C(CC[C@@H]4C(C)CC[C@@H](C)C(C)C)C(=CCC2C1)O3 (stereo partly drawn) | > 25 µM | > 25 µM | > 25 µM | > 25 µM | > 25 µM | – | > 25 µM | > 25 µM | > 25 µM | > 25 µM | – | – | –
16 | COc1ccc(C(=O)c2c(-c3ccccc3NC(=O)C(F)(F)F)[nH]c3ccccc23)cc1 | 8.62 µM | 25.5 µM | 28.6 µM | 21.8 µM | – | 21.4 µM | 14.9 µM | 10.6 µM | 32.7 µM | 27.2 µM | – | – | –
17 | COC(=O)[C@@H]1[C@H](O)CCC2=C(CC(=O)c3ccoc3)[C@H](C)CC[C@]21C | – | > 50 µM | > 50 µM | > 50 µM | > 50 µM | > 50 µM | > 50 µM | – | > 50 µM | – | – | – | –
18 | O=C(NNS(=O)(=O)c1ccc(Br)cc1)c1ccc(Cl)cc1NC(=O)C12CC3CC(CC(C3)C1)C2 | 35.5 µM | > 100 µM | 56.6 µM | 85.7 µM | 31.6 µM | – | 25.3 µM | 73.9 µM | 30.3 µM | 24 µM | – | – | –
19 | Brc1c2nc3ccccc3nc2n2ccc3ccccc3c12 | > 100 µM | > 100 µM | > 100 µM | > 100 µM | – | – | > 100 µM | > 100 µM | > 100 µM | > 100 µM | – | – | –
20 | C[N+](C)(C)CCOC(=O)/C=C/c1cnc[nH]1 | – | > 500 µM | > 500 µM | > 500 µM | > 500 µM | – | > 500 µM | > 316 µM | > 500 µM | > 500 µM | – | – | –
21 | Nc1nc(Nc2ccc(Cl)cc2)sc1C(=O)c1c[nH]c2ccccc12 | > 100 µM | 23.1 µM | – | 51.1 µM | 44.1 µM | 35 µM | 28.4 µM | – | 46.4 µM | > 100 µM | – | – | –
22 | C=C1C2C[C@@H]3OC4CC5O[C@]6(CC5OC4C(C)C3OC(=O)CC3CC[C@@H]4OC5C7OC8C[C@](CCC9CC(=C)[C@H](CCC(C[C@H]1C)O2)O9)(OC7C4O3)O[C@@H]85)C[C@@H]1O[C@@]2(CC(C)[C@@H]3OC(CC(=O)CCO)C(O)C[C@@H]3O2)CC(C)[C@@H]1O6 (stereo partly drawn) | 1.24 µM | 0.00111 µM | 0.877 µM | 0.00228 µM | – | – | < 0.001 µM | 2.19 µM | 0.905 µM | – | – | – | –
